Source: patent US7718614B2 (Kurume University, priority 2003, dated 2010)
Values joined by “and” are separate entries in the source; they are usually repeats but may differ in a detail not shown here. Equal values may be shown once. “Also recorded” adds a separate entry of the source.

Experiments:
PBMCs [1] = experiment: Immunosuppression during combination therapy, Example 2; conditions: half dose (280 mg/day) with the peptide
HRPC patients [2] = experiment: Combination therapy by dose of estramustine phosphate, Example 3; assay type: in vivo, human
PBMCs [3] = experiment: Monitoring of estramustine-induced immunosuppression (IFN-γ production of PBMCs to PHA, EBV-peptide and vaccinated peptides), Example 1
peptide-specific IgG [4] = experiment: ELISA of serum anti-peptide IgG, Example 2; assay type: in vivo, human; design: key: −: absent; +: present, low titer; ++: present, high titer; conditions: serum of the individual patient; for Anti-peptide IgG, 6th: after 6th vaccination; for Anti-peptide IgG, Pre: pre-vaccination
Description: Peptide-specific CTL precursors in PBMCs were detected using a previously reported culture method, while an ELISA was used to detect the serum IgG levels specific for the peptides administrated, as reported previously. In addition, a new monitoring method was conducted to carefully measure the estramustine-induced immunosuppression. Namely, PBMCs were harvested every 2 weeks and were cultured (10^4 cells/well) for 2 days in triplicate assays with […] of phytohemagglutinin (PHA), 10 ng/ml of Epstein-Bar virus (EBV)-derived peptide with HLA-A24 or -A2 binding motif, and 10 ng/ml of two different peptides under vaccination. After 2 days in culture, the amounts of IFN-γ in cell free supernatants were measured in triplicate assays, and viable cell numbers were also counted. To avoid biases in each assay, all the PBMCs were once cryopreserved and the four different PBMCs (two from healthy donors, one from patients PBMCs harvested 2 weeks before the latest vaccination, and one from the latest vaccination) were thawed at the same time in the morning of the experiment. The PBMCs from healthy donors were from the same donors throughout the series of immunological monitoring. Responses (IFN-γ production) to PHA, EBV-peptide, and the vaccinated peptides were considered to be mediated by resting T cells, memory T cells, and activated T cells, respectively.
Except for the following points, substantially the same approach was employed as Example 1.

[5] = system: peptide-specific CTL precursors in PBMCs; experiment: Peptide-specific CTL precursor assay (IFN-γ production), Example 2; assay type: cell-based, human; conditions: for Cellular response to peptide, 6th (mean specific IFN-γ production): post(6th)-vaccination PBMCs of the individual patient, * p ≦ 0.05, ** p ≦ 0.10 increased versus pre; for Cellular response to peptide, Pre (mean specific IFN-γ production): pre-vaccination PBMCs of the individual patient, response to HIV peptide subtracted
Description: Before the first vaccination and 7 days after every 6th vaccination, 30 ml of peripheral blood was obtained, and PBMCs were isolated by means of Ficoll-Conray density gradient centrifugation. Peptide-specific CTL precursors in PBMCs were detected using a previously reported culture method [24]. Briefly, PBMCs (1×10^5 cells/well) were incubated with 10 μM of each peptide in U-bottom-type 96-well microculture plates (Nunc, Roskilde, Denmark) in 200 μl of culture medium. The culture medium contained 45% RPMI-1640 medium, 45% AIM-V™ medium (Invitrogen Corp., Carlsbad, Calif.), 10% FCS, 100 U/ml of interleukin-2 (IL-2) and 0.1 mM MEM nonessential amino acid solution (Invitrogen Corp.). Half of the medium was removed and replaced with the new medium containing a corresponding peptide (20 μM) every 3 days for up to 12 days. […] The target cells (C1R-A2402 or T2, 1×10^4/well) were pulsed with each peptide (10 μM) for 2 hr, and then effector cells (1×10^5/well) were added to each well with the final volume of 200 μl. After incubation for 18 hr, the supernatants (100 μl) were collected, and the amounts of IFN-γ were measured using an enzyme-linked immuno-sorbent assay (ELISA) (limit of sensitivity: 10 pg/ml). All experiments were performed in the four different wells with duplicate assays.
All patients were vaccinated with up to 4 peptides selected from the 16 candidates by pre-vaccination measurements.

[6] = system: peptide-specific CTL precursors in PBMCs; experiment: Peptide-specific CTL precursor assay (IFN-γ production of peptide-stimulated PBMCs), Example 1; assay type: cell-based, human; design: key to Cellular response to peptide during the combination therapy, 12th / Cellular response to peptide during the combination therapy, 6th / Cellular response to peptide during the combination therapy, Pre: Ar: p* ≦ 0.1 and 500 ≦ net**; A: p ≦ 0.05 and 50 ≦ net; B: p ≦ 0.05 and 25 ≦ net < 50; C: 0.05 < p < 0.1 and 50 ≦ net; AAAA: all four wells of quadruplicate assay were positive; AAA: three wells of quadruplicate assay were positive; AA: two wells of quadruplicate assay were positive; conditions: PBMCs of the individual case; for Cellular response to peptide during the combination therapy, 6th: after 6th vaccination; for Cellular response to peptide during the combination therapy, 12th: after 12th vaccination; for Cellular response to peptide during the combination therapy, 18th: after 18th vaccination; for Cellular response to peptide during the combination therapy, Pre: before combination therapy, grade of each positive well of quadruplicate IFN-γ assay;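 as to all read-outs here: PBMCs cultured with each peptide at 10 µM, restimulated at 20 µM every 3 days up to 12 days, then 18 hr with peptide-pulsed target cells, IFN-γ by ELISA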
Description: Before the first vaccination and 7 days after every 6th vaccination, 30 ml of peripheral blood was obtained, and PBMCs were isolated by means of Ficoll-Conray density gradient centrifugation. Peptide-specific CTL precursors in PBMCs were detected using a previously reported culture method [24]. Briefly, PBMCs (1×10^5 cells/well) were incubated with 10 μM of each peptide in U-bottom-type 96-well microculture plates (Nunc, Roskilde, Denmark) in 200 μl of culture medium. The culture medium contained 45% RPMI-1640 medium, 45% AIM-V™ medium (Invitrogen Corp., Carlsbad, Calif.), 10% FCS, 100 U/ml of interleukin-2 (IL-2) and 0.1 mM MEM nonessential amino acid solution (Invitrogen Corp.). Half of the medium was removed and replaced with the new medium containing a corresponding peptide (20 μM) every 3 days for up to 12 days. […] The target cells (C1R-A2402 or T2, 1×10^4/well) were pulsed with each peptide (10 μM) for 2 hr, and then effector cells (1×10^5/well) were added to each well with the final volume of 200 μl. After incubation for 18 hr, the supernatants (100 μl) were collected, and the amounts of IFN-γ were measured using an enzyme-linked immuno-sorbent assay (ELISA) (limit of sensitivity: 10 pg/ml). All experiments were performed in the four different wells with duplicate assays. […] Peptides were chosen based upon evaluation of all 4 wells by the order shown above.
Peptide-specific CTL precursors in PBMCs were detected using a previously reported culture method [24], while an ELISA was used to detect the serum IgG levels specific for the peptides administrated, as reported previously [13-15]. […] Namely, PBMCs were harvested every 2 weeks and were cultured (10^4 cells/well) for 2 days in triplicate assays with 10 μl M of phytohemagglutinin (PHA), 10 ng/ml of Epstein-Bar virus (EBV)-derived peptide with HLA-A24 or -A2 binding motif, and 10 ng/ml of two different peptides under vaccination. After 2 days in culture, the amounts of IFN-γ in cell free supernatants were measured in triplicate assays, and viable cell numbers were also counted. To avoid biases in each assay, all the PBMCs were once cryopreserved and the four different PBMCs (two from healthy donors, one from patients PBMCs harvested 2 weeks before the latest vaccination, and one from the latest vaccination) were thawed at the same time in the morning of the experiment. The PBMCs from healthy donors were from the same donors throughout the series of immunological monitoring. Responses (IFN-γ production) to PHA, EBV-peptide, and the vaccinated peptides were considered to be mediated by resting T cells, memory T cells, and activated T cells, respectively.

peptide-specific IgG [7] = experiment: ELISA of serum IgG specific for the administered peptides, Example 1; assay type: in vivo, human; design: key: −: absent; +: present, low titer; ++: present, high titer; conditions: serum of the individual case; for Anti-peptide IgG during the combination therapy, 6th: after 6th vaccination; for Anti-peptide IgG during the combination therapy, 12th: after 12th vaccination; for Anti-peptide IgG during the combination therapy, 18th: after 18th vaccination; for Anti-peptide IgG during the combination therapy, Pre: before combination therapy
HRPC patients [8] = conditions: phase III study; cited from earlier work
[9] = estramustine 140 mg/day combined with peptide vaccination, 4 cases
[10] = estramustine 280 mg/day combined with peptide vaccination, 32 cases
[11] = estramustine 560 mg/day combined with peptide vaccination, 5 cases

Row | Molecule | Anti-peptide IgG, 6th (peptide-specific IgG [4]) | Anti-peptide IgG, Pre (peptide-specific IgG [4]) | Cellular response to peptide, 6th (mean specific IFN-γ production) [5] | Cellular response to peptide, Pre (mean specific IFN-γ production) [5] | Cellular response to peptide during the combination therapy, 6th [6] | Cellular response to peptide during the combination therapy, 12th [6] | Cellular response to peptide during the combination therapy, 18th [6] | Anti-peptide IgG during the combination therapy, 6th (peptide-specific IgG [7]) | Anti-peptide IgG during the combination therapy, 12th (peptide-specific IgG [7]) | Anti-peptide IgG during the combination therapy, 18th (peptide-specific IgG [7]) | Anti-peptide IgG during the combination therapy, Pre (peptide-specific IgG [7]) | Cellular response to peptide during the combination therapy, Pre [6] | further results
1 | C[C@]12CC[C@@H]3c4ccc(OC(=O)N(CCCl)CCCl)cc4CC[C@H]3[C@@H]1CC[C@@H]2OP(=O)(O)O [estramustine phosphate, Estramustine phosphate] |  |  |  |  |  |  |  |  |  |  |  |  | Immunosuppression (PBMCs [1]): no significant immunosuppression in most cases; Clinical Response, number of PD (HRPC patients [2]; [9]): 3; Clinical Response, number of SD (HRPC patients [2]; [9]): 1; Response, Cellular Immunity (HRPC patients [2]; [9]): 3/4; Response, Humoral Immunity (HRPC patients [2]; [9]): 4/4; Clinical Response, number of PD (HRPC patients [2]; [10]): 12PD; Clinical Response, number of PR (HRPC patients [2]; [10]): 10PR,; Clinical Response, number of SD (HRPC patients [2]; [10]): 10SD,; Response, Cellular Immunity (HRPC patients [2]; [10]): 23/31; Response, Humoral Immunity (HRPC patients [2]; [10]): 27/32; Clinical Response, number of PD (HRPC patients [2]; [11]): 5PD; Response, Cellular Immunity (HRPC patients [2]; [11]): 0/3; Response, Humoral Immunity (HRPC patients [2]; [11]): 1/2; Immune suppression (PBMCs [3]; full dose (560 mg/day) with peptide vaccination, cases 2 and 3, recovered on discontinuing): severe immune suppression; Immune suppression (PBMCs [3]; half/low dose (280 mg/day) with the peptide, 8 cases tested): no significant immune suppression
2 | AYIDFEMKI [SART 3315-323] | + (2×) and − (3×) | − (4×) and + (2×) | 39.3 pg/ml and 12.8 pg/ml and 154** pg/ml and 26.5 pg/ml and 255 pg/ml | 47.8 pg/mL and 4 pg/mL and 0 pg/mL and 112.3 pg/mL and 44.8 pg/mL and 15 pg/mL | A (p ≦ 0.05 and 50 ≦ net) | Ar (p* ≦ 0.1 and 500 ≦ net**) | ArArArB | − and + | − | − | − and + |  | 
3 | HYTNASDGL [lck208-216] | − | − (2×) and + | 0 pg/mL and 676 pg/mL and 58.8 pg/mL | 34.8 pg/mL and 5.8 pg/mL and 26.3 pg/mL | AA |  |  | − | − | − and + | − | A (p ≦ 0.05 and 50 ≦ net) | 
4 | VYDYNCHVDL [SART 3109-118] | + (8×) and ++ and − | + (11×) and − | 25 pg/ml and 27.3 pg/ml and 534** pg/ml and 170.8 pg/ml and 750** pg/ml and 610.8* pg/ml and 250 pg/ml and 496 pg/ml and 22.3 pg/ml and 0 pg/ml and 681.8 pg/ml | 14.3 pg/ml and 26 pg/ml and 12.3 pg/ml and 5.3 pg/ml and 5.5 pg/ml and 0 pg/ml (2×) and 625 pg/ml and 35.8 pg/ml and 30.3 pg/ml and 25.3 pg/ml and 2.8 pg/ml | ArA and ArArArA | B (p ≦ 0.05 and 25 ≦ net < 50); also recorded: ArArArA | ArArAA | ++ and + and − | ++ and − | ++ and + | + and − (2×) | ArAA and ArArArA | 
5 | AYDFLYNYL [SART 2161-169] |  | + |  | 0 pg/mL | Ar (p* ≦ 0.1 and 500 ≦ net**) | B (p ≦ 0.05 and 25 ≦ net < 50) and AAC | ArA and ArArAA | − | − | − | − | A (p ≦ 0.05 and 50 ≦ net) | 
6 | CC[C@]1(O)C[C@@H]2CN(CCc3c([nH]c4ccccc34)[C@@](C(=O)OC)(c3cc4c(cc3OC)N(C)[C@H]3[C@@](O)(C(=O)OC)[C@H](OC(C)=O)[C@]5(CC)C=CCN6CC[C@]43[C@@H]65)C2)C1 [vinblastine] |  |  |  |  |  |  |  |  |  |  |  |  | Rate of neutropenia, grade 2 (HRPC patients [8]): 27%; Rate of neutropenia, grade 3 (HRPC patients [8]): 18%; Rate of neutropenia, grade 4 (HRPC patients [8]): 9%
